In series [1] the test system is H1975 lung cancer cells expressing L858R/T790M EGFR. Briefly: MTT cytotoxicity assay on H1975 cells. As to conditions: read-out: IC50, cytotoxic effect on H1975 cell viability. The series is classed as cell-based, Human. Background: Tetrazolium dyes change colour on reduction, which living cells bring about.
Description: Both cells were maintained to grow at 37 °C in a humidified 5% CO2 atmosphere.
The studied cell lines were seeded into 96-well plates (cell density of 6000 cells/well) and were incubated overnight. […] After incubation, the effect of compounds on cell viability was measured using the MTT assay as follows: 10 μL of MTT solution (5 mg/mL) was added and then incubated for 3 h. The medium was removed, followed by adding 50 μL of DMSO to dissolve the crystal formazan product. The purple solution of crystal formazan was then measured at 570 nm using a microplate spectrophotometer (Infinite M200 microplate reader, Tecan, Männedorf, Switzerland). The complete medium with 1.0% DMSO (no inhibitor) was used as a control in accordance with the reaction containing 1.0% DMSO of all wells.
The next series can be described thus: in vitro. As to conditions: monkey, IC50, cytotoxic effect on Vero cell viability.
The next series deals with Vero normal kidney cells. Description: MTT cytotoxicity assay on Vero cells. The following applies: read-out: IC50, cytotoxic effect on Vero cell viability, 72 h.
The nature of series [2]: MTT cytotoxicity assay on Vero cells. As to conditions: monkey, Vero cells (normal kidney epithelial cell line), IC50, cytotoxic effect on Vero cell viability.
Description: (§1) Human NSCLC cell lines, H1975 (ATCC CRL-5908) and monkey’s normal kidney epithelial cell line (Vero, ATCC CCL-81) were purchased from American Type Culture Collection (ATCC, Manassas, VA, USA). H1975 cells were grown in RPMI-1640 medium supplemented with 10% FBS, 100 U/mL penicillin, and 100 µg/mL streptomycin. Vero cells were grown in Dulbecco’s modified Eagle’s minimal essential medium (DMEM; Gibco, Grand Island, NY, USA) containing 10% fetal bovine serum (FBS; Gibco), 100 U/mL penicillin, and 100 µg/mL streptomycin (Gibco). Both cells were maintained to grow at 37 °C in a humidified 5% CO2 atmosphere.
(§2) The studied cell lines were seeded into 96-well plates (cell density of 6000 cells/well) and were incubated overnight. Then, cells were treated with screened compounds and the known drug with various concentrations (125, 62.5, 31.25, 15.63, 7.81, 3.91, 1.95, and 0.98 μM) for 72 h. After incubation, the effect of compounds on cell viability was measured using the MTT assay as follows: 10 μL of MTT solution (5 mg/mL) was added and then incubated for 3 h. The medium was removed, followed by adding 50 μL of DMSO to dissolve the crystal formazan product. The purple solution of crystal formazan was then measured at 570 nm using a microplate spectrophotometer (Infinite M200 microplate reader, Tecan, Männedorf, Switzerland). The complete medium with 1.0% DMSO (no inhibitor) was used as a control in accordance with the reaction containing 1.0% DMSO of all wells.
Series [3] addresses EGFR (L858R/T790M/C797S) TK (Homo sapiens, UniProt P00533, C797S/L858R/T790M). Briefly: ADP-Glo kinase assay, EGFR tyrosine kinase inhibition. Type of series: biochemical. The procedure:
The inhibitory activity of each candidate compound towards EGFR triple mutations was performed using the luminescent ADP-Glo™ kinase assay (Promega Corporation, Madison, WI, USA) as previously described. […] Subsequently, 10 μL of kinase detection reagent was added and incubated at room temperature for 30 min to convert ADP into ATP. The generated luminescence by ATP in a luciferase reaction was then measured using a microplate reader (Infinite M200 microplate reader, Tecan, Männedorf, Switzerland), which corresponds to kinase activity. All assays were performed in triplicate and the obtained data were represented as the relative inhibition (%) of inhibitors compared to the control with no inhibitor as shown in Equation (1); (1) % relative inhibition=positive−negative−sample−negative/positive−negative×100

Setting [4] is: enzyme-based assay, mean ± SEM, triplicate, read-out: IC50, kinase inhibitory activity against EGFR (L858R/T790M/C797S).
[5] abbreviates: Homo sapiens, NCI-H1975, MTT, 72 h.

Read-outs that look alike come from different tables or passages of the source.

EGFR (L858R/T790M/C797S) TK, sequence (P00533 25-1210 T790M/C797S/L858R): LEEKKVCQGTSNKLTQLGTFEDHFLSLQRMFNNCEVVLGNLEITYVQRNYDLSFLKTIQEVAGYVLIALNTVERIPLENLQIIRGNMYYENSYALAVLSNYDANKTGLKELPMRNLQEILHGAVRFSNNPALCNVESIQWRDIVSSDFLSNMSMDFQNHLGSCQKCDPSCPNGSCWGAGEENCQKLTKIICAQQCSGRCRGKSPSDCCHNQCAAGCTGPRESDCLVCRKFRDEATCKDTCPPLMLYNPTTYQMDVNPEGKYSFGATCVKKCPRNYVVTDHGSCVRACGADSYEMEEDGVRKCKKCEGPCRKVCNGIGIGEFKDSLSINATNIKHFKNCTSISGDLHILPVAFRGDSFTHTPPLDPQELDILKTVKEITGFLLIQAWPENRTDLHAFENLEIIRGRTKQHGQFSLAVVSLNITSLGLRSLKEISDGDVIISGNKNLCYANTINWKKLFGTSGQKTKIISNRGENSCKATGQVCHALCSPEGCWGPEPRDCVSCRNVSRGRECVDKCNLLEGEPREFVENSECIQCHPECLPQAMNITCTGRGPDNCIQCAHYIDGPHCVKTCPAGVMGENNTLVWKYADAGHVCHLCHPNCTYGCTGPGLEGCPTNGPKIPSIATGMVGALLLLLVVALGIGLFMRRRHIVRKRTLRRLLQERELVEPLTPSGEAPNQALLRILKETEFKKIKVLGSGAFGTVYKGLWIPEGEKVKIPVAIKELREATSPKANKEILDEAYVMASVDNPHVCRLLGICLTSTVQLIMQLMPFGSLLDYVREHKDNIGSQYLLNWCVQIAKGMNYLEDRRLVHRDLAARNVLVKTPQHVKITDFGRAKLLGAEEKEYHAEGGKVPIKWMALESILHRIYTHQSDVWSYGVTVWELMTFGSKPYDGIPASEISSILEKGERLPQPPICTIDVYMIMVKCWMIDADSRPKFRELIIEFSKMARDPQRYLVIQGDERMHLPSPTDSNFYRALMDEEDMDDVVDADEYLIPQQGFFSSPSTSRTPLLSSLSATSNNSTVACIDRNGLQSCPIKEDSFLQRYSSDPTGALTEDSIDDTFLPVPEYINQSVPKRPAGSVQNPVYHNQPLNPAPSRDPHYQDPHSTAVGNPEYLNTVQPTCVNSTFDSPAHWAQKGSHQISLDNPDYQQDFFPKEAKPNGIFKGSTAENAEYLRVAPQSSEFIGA
Description for Vero normal kidney cells: as §1, §2
Description for in vitro: as §1, §2

For the molecule `C=CC(=O)Nc1cc(Nc2nccc(-c3cn(C)c4ccccc34)n2)c(OC)cc1N(C)CCN(C)C` [Osimertinib, reference compound], the IC50 in series [1] (Homo sapiens, NCI-H1975, 72 h) was determined as 18.3 ± 2.02 µM. The IC50 at 72 h in “in vitro” was above 100 µM.
With `CCn1c(=O)c(-n2cnc3ccccc32)nc2ccccc21` [CPD15], the IC50 in the series with Vero normal kidney cells is above 50 µM; in series [3], 0.0065 ± 0.00302 µM; in series [1] (MTT, 72 h) it was 31.2 ± 3.4 µM. The same molecule yielded an IC50 at 72 h in series [2] above 100 µM.
In the case of `CCOc1nc2ccccc2n(Cc2ccccc2)c1=O` [CPD21, 1-Benzyl-3-ethoxyquinoxalin-2(1H)-one], in series [2], the IC50 at 72 h was above 100 µM. The values for the IC50 in series [3] (setting [4]) and in series [1] (setting [5]) were 0.00381 ± 0.0018 µM and 44.7 ± 2.34 µM, respectively.
`O=c1[nH]c2ccccc2nc1OCc1ccccc1` [CPD16] yielded an IC50 at 72 h in series [2] above 100 µM. The IC50 in series [3] (setting [4]) stood at 0.0105 ± 0.0011 µM; in series [1] (setting [5]) it was 79.4 ± 4.35 µM.
As for `O=c1c(-n2cncn2)nc2ccccc2n1Cc1ccccc1` [CPD4], the IC50 at 72 h in series [2] was above 20 µM. For the same molecule, the IC50 turned out to be 0.00304 ± 0.00124 µM in series [3] (setting [4]) and 3.47 ± 2.2 µM in series [1] (setting [5]).

(Values after article PMC9788584, “Quinoxalinones as A Novel Inhibitor Scaffold for EGFR (L858R/T790M/C797S) Tyrosine Kinase: Molecular Docking, Biological Evaluations, and Computational Insights” (Molecules, 2022).)
